# According to the supplement of paper PMC10307832:
# Tests used:
# Test in all cases: relative viability (nuclei count vs DMSO), 5 days (fraction); higher = more cells survive
# [1] = compound: Cc1ccc(C(=O)Nc2ccc(CN3CCN(C)CC3)c(C(F)(F)F)c2)cc1C#Cc1cnc2cccnn12 [Ponatinib] + CC(=O)Nc1cccc(-n2c(=O)n(C3CC3)c(=O)c3c(Nc4ccc(I)cc4F)n(C)c(=O)c(C)c32)c1 [Trametinib] (partner 0.02 µM)
# In short: (§1)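 After 5 days of treatment, lung cancer cells in 1536-well plates were fixed and stained in a single step (final 0.05% Triton X-100, 1% formaldehyde, 1 ug/ml Hoechst) and their nuclei counted on 4× images. Treatment had been applied by pin tool the day after seeding as one drug alone or as a fixed anchor-drug dose with five library-drug doses (not always all listed) in √10 steps. Relative viability is the nuclei count of treated wells divided by that of vehicle wells, and values are medians of duplicate plates.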
# [2] = compound: Cc1ccc(Nc2nccc(N(C)c3ccc4c(C)n(C)nc4c3)n2)cc1S(N)(=O)=O [Pazopanib] + N=C(N)NC(=N)NCCc1ccccc1 [Phenformin] (partner 250 µM)
# In short: as §1
# [3] = compound: Cc1ccc(C(=O)Nc2ccc(CN3CCN(C)CC3)c(C(F)(F)F)c2)cc1C#Cc1cnc2cccnn12 [Ponatinib] + CS(=O)(=O)N1CCN(Cc2cc3nc(-c4cccc5[nH]ncc45)nc(N4CCOCC4)c3s2)CC1 [Pictilisib] (partner 1 µM)
# In short: as §1
# [4] = compound: Cc1ccc(C(=O)Nc2ccc(CN3CCN(C)CC3)c(C(F)(F)F)c2)cc1C#Cc1cnc2cccnn12 [Ponatinib] + NC(=O)Nc1cc(-c2cccc(F)c2)sc1C(=O)N[C@H]1CCCNC1 [AZD7762] (partner 0.2 µM)
# In short: as §1
Cell Line,relative viability ([1]; first compound 0.002 µM),relative viability ([1]; first compound 0.006325 µM),relative viability ([1]; first compound 0.06325 µM),relative viability ([1]; first compound 0.2 µM),relative viability ([2]; first compound 0.01 µM),relative viability ([2]; first compound 0.03162 µM),relative viability ([2]; first compound 0.1 µM),relative viability ([2]; first compound 0.3162 µM),relative viability ([2]; first compound 1 µM),relative viability ([3]; first compound 0.002 µM),relative viability ([3]; first compound 0.006325 µM),relative viability ([3]; first compound 0.06325 µM),relative viability ([3]; first compound 0.2 µM),relative viability ([4]; first compound 0.002 µM),relative viability ([4]; first compound 0.006325 µM),relative viability ([4]; first compound 0.06325 µM),relative viability ([4]; first compound 0.2 µM)
SW 1573,0.6,0.595,0.591,0.577,0.406,0.36,0.471,0.437,0.509,0.489,0.515,0.526,0.566,–,–,–,–
NCI-H2342,0.741,0.802,0.936,0.83,0.501,0.635,0.538,0.572,0.569,–,–,–,–,0.436,0.457,0.467,0.456
NCI-H1299,–,–,–,–,–,–,–,–,–,0.894,0.874,0.988,0.658,–,–,–,–
NCI-H1650,0.583,0.543,0.801,0.474,0.405,0.559,0.418,0.537,0.464,0.601,0.722,0.642,0.558,–,–,–,–
NCI-H2009,0.284,0.253,0.189,0.165,0.504,0.47,0.451,0.453,0.388,0.755,0.838,0.794,0.625,–,–,–,–
SW 900,1,0.967,0.762,0.873,0.532,0.628,0.398,0.593,0.689,–,–,–,–,0.569,0.46,0.606,0.537
NCI-H1648,0.478,0.361,0.432,0.346,–,–,–,–,–,–,–,–,–,0.627,0.64,0.618,0.567
NCI-H522,0.739,0.876,0.594,0.629,0.532,0.618,0.71,0.7,0.65,–,–,–,–,0.664,0.784,0.695,0.819
A549,–,–,–,–,–,0.169,0.178,0.142,0.18,0.527,0.645,0.608,0.401,–,–,–,–
NCI-H520,0.597,0.623,0.435,0.285,0.386,0.545,0.507,0.705,0.537,0.253,0.248,0.259,0.249,–,–,–,–
NCI-H1563,–,–,–,–,0.64,0.664,0.673,0.722,0.758,0.546,0.601,0.586,0.599,–,–,–,–
ABC-1,–,–,–,–,0.23,0.242,–,0.196,0.269,0.826,0.78,0.884,0.658,0.828,0.878,0.755,0.663
